How the values were obtained:
blackgrass = assay: Test C postemergence herbicide test; format: in vivo, Alopecurus myosuroides
Summary of the method: (§1)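 Visual rating, 0 (no effect) to 100 (complete control), vs. controls at 12–14 d in greenhouse. Postemergence: 1–4-leaf plants, 2–18 cm. Paddy: flooded, barnyardgrass at 2-leaf stage.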

chickweed = assay: Test C postemergence herbicide test; format: in vivo, Stellaria media; details: for Chickweed plant response rating: 500 g ai/ha
Summary of the method: as §1

green foxtail = assay: Test C postemergence herbicide test; format: in vivo, Setaria viridis
Summary of the method: as §1

wheat = assay: Test C postemergence herbicide test; format: in vivo, Triticum aestivum
Summary of the method: as §1

windgrass = assay: Test C postemergence herbicide test; format: in vivo, Apera spica-venti; details: scale 0 to 100; for Plant response rating, Windgrass: postemergence
Summary of the method: as §1

canarygrass = assay: Test C postemergence herbicide test; format: in vivo, Phalaris minor
Summary of the method: as §1

downy bromegrass = assay: Test C postemergence herbicide test; format: in vivo, Bromus tectorum
Summary of the method: as §1

wild oat = assay: Test C postemergence herbicide test; format: in vivo, Avenafatua
Summary of the method: as §1

Italian ryegrass = assay: Test C postemergence herbicide test; format: in vivo, Lolium multiflorum
Summary of the method: as §1

winter barley = assay: Test C postemergence herbicide test; format: in vivo, Hordeum vulgare
Summary of the method: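 Postemergence sprays were applied to plants 2 to 18 cm tall (1- to 4-leaf stage); in the flooded paddy test, barnyardgrass was grown to the 2-leaf stage. After 12 to 14 days in a greenhouse, injury was visually rated against untreated controls on a 0–100 scale (100 = complete control).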

broadleaf signalgrass = assay: Test E pre-/postemergence herbicide test; format: in vivo, Brachiaria platyphylla
Description: (§2) Seeds of plant species selected from bipinnate beggarticks (Bidens bipinnata L.), hairy beggarticks (Bidens radiata Thuill.), bermudagrass (Cynodon dactylon (L.) Pers.), Surinam grass (Urochloa decumbens (Staph) R. D. Webster, previously named Brachiaria decumbens Stapf), large crabgrass (Digitaria sanguinalis (L.) Scop.), green foxtail (Setaria viridis (L.) P. Beauv.), goosegrass (Eleusine indica (L.) Gaertn.), johnsongrass (Sorghum halepense (L.) Pers.), kochia (Kochia scoparia (L.) Schrad.), pitted morningglory (Ipomoea lacunosa L.), purple nutsedge (Cyperus rotundus L.), common ragweed (Ambrosia elatior L.), mustard (Brassica nigra (L.) W. D. J. Koch), guineagrass (Panicum maximum Jacq.), dallisgrass (Paspalum dilatatum Poir.), barnyardgrass (Echinochloa crus-galli (L). P. Beauv.), southern sandbur (Cenchrus echinatus L.), common sowthistle (Sonchus oleraceous L.), prickly sida (Sida spinosa L.), Italian ryegrass (Lolium multiflorum Lam.), common purslane (Portulaca oleracea L.), broadleaf signalgrass (Brachiaria platyphylla (Griseb.) Nash), common groundsel (Senecio vulgaris L.), common chickweed (Stellaria media (L.) Vill/Cyr.), tropical spiderwort (Commelina benghalensis L.), annual bluegrass (Poa annua L.), downy bromegrass (Bromus tectorum L.), itchgrass (Rottboellia cochinchinensis (L.) L.f.), quackgrass (Elytrigia repens (L.) Nevski), Canada horseweed (Erigeron Canadensis L.), field bindweed (Convolvulus arvensis L.), spotted spurge (Euphorbia maculata L.), common mallow (Malva sylvestris (=s silvestris) L.), and Russian thistle (Salsola kali L. ssp. Ruthenica (Iljin) Soo) were planted and treated preemergence with test chemicals formulated in a non-phytotoxic solvent mixture which included a surfactant.
(§3) At the same time, plants selected from these weed species were treated with postemergence applications of some of the test chemicals formulated in the same manner. Plants ranged in height from 2 to 18 cm (1- to 4-leaf stage) for postemergence treatments. Treated plants and controls were maintained in a greenhouse for 12 to 14 days, after which time all species were compared to controls and visually evaluated. Plant response ratings, summarized in Table E, are based on a scale of 0 to 100 where 0 is no effect and 100 is complete control. A dash (-) response means no test result.

tropical spiderwort = assay: Test E pre-/postemergence herbicide test; format: in vivo, Commelina benghalensis
Description: as §2, §3

itchgrass = assay: Test E pre-/postemergence herbicide test; format: in vivo, Rottboellia cochinchinensis
Description: as §2, §3

dallisgrass = assay: Test E pre-/postemergence herbicide test; format: in vivo, Paspalum dilatatum
Description: as §2, §3

purple nutsedge = assay: Test E pre-/postemergence herbicide test; format: in vivo, Cyperus rotundus
Description: as §2, §3

[1] = Postemergence, 500 g ai/ha, scale 0 to 100
[2] = Postemergence, 250 g ai/ha, scale 0 to 100, 0 no effect, 100 complete control
[3] = postemergence, 125 g ai/ha, scale 0 to 100
[4] = postemergence, 62 g ai/ha, scale 0 to 100
[5] = Preemergence, 62 g ai/ha, scale 0 to 100
[6] = Preemergence, 125 g ai/ha, scale 0 to 100
[7] = Preemergence, 250 g ai/ha, scale 0 (no effect) to 100 (complete control)
[8] = Preemergence, 500 g ai/ha, scale 0 (no effect) to 100 (complete control)
[9] = Postemergence, 250 g ai/ha, scale 0 to 100
[10] = postemergence, 31 g ai/ha, scale 0 to 100

CCn1nc(C(C)(C)C)cc1C(=O)Nc1cccc(OC(F)(F)F)c1 [Compound 272]
Blackgrass plant response rating (blackgrass; [1]): 65 | Plant response rating, Blackgrass (blackgrass; [2]): 45 | Plant response rating, Blackgrass (blackgrass; [3]): 45 | Plant response rating, Blackgrass (blackgrass; [4]): 35 | Chickweed plant response rating (chickweed; Postemergence, scale 0 to 100): 100 | Plant response rating, Chickweed (chickweed; [2]): 100 | Plant response rating, Chickweed (chickweed; [3]): 100 | Plant response rating, Chickweed (chickweed; [4]): 95 | Foxtail, Green plant response rating (green foxtail; [1]): 60 | Plant response rating, Foxtail, Green (green foxtail; [2]): 45 | Plant response rating, Foxtail, Green (green foxtail; [3]): 40 | Plant response rating, Foxtail, Green (green foxtail; [4]): 35 | Wheat plant response rating (wheat; [1]): 35 | Plant response rating, Wheat (wheat; [2]): 35 | Plant response rating, Wheat (wheat; [3]): 35 | Plant response rating, Wheat (wheat; [4]): 30 | Windgrass plant response rating (windgrass; Postemergence, 500 g ai/ha): 85 | Plant response rating, Windgrass (windgrass; 125 g ai/ha): 70 | Plant response rating, Windgrass (windgrass; 62 g ai/ha): 60 | Canarygrass plant response rating (canarygrass; [1]): 55 | Plant response rating, Canarygrass (canarygrass; [2]): 40 | Plant response rating, Canarygrass (canarygrass; [3]): 35 | Plant response rating, Canarygrass (canarygrass; [4]): 35 | Bromegrass, Downy plant response rating (downy bromegrass; [1]): 65 | Plant response rating, Bromegrass, Downy (downy bromegrass; [2]): 60 | Plant response rating, Bromegrass, Downy (downy bromegrass; [3]): 55 | Plant response rating, Bromegrass, Downy (downy bromegrass; [4]): 30 | Oat, Wild plant response rating (wild oat; [1]): 65 | Plant response rating, Oat, Wild (wild oat; [2]): 55 | Plant response rating, Oat, Wild (wild oat; [3]): 45 | Plant response rating, Oat, Wild (wild oat; [4]): 40 | Ryegrass, Italian plant response rating (Italian ryegrass; [1]): 60 | Plant response rating, Ryegrass, Italian (Italian ryegrass; [2]): 45 | Plant response rating, Ryegrass, Italian (Italian ryegrass; [3]): 45 | Plant response rating, Ryegrass, Italian (Italian ryegrass; [4]): 30 | Barley, Winter plant response rating (winter barley; [1]): 35 | Plant response rating, Barley, Winter (winter barley; [2]): 35 | Plant response rating, Barley, Winter (winter barley; postemergence, 125 g ai/ha, scale 0 to 100 (0 no effect, 100 complete control)): 35 | Plant response rating, Barley, Winter (winter barley; postemergence, 62 g ai/ha, scale 0 to 100 (0 no effect, 100 complete control)): 35

CCc1nn(C(C)(C)CC)nc1C(=O)Nc1cccc(C(=O)N(C)C)c1 [Compound 372]
Plant response rating, Signalgrass (broadleaf signalgrass; [5]): 0 | Plant response rating, Signalgrass (broadleaf signalgrass; [6]): 10 | Plant response rating, Signalgrass (broadleaf signalgrass; [7]): 40 | Plant response rating, Signalgrass (broadleaf signalgrass; [8]): 60 | Plant response rating, Spiderwort (tropical spiderwort; [6]): 70 | Plant response rating, Spiderwort (tropical spiderwort; [7]): 70 | Plant response rating, Spiderwort (tropical spiderwort; [8]): 80 | Plant response rating, Itchgrass (itchgrass; [5]): 30 | Plant response rating, Itchgrass (itchgrass; [6]): 60 | Plant response rating, Itchgrass (itchgrass; [7]): 60 | Plant response rating, Itchgrass (itchgrass; [8]): 80 | Plant response rating, Dallisgrass (dallisgrass; [5]): 10 | Plant response rating, Dallisgrass (dallisgrass; [6]): 50 | Plant response rating, Dallisgrass (dallisgrass; [7]): 80 | Plant response rating, Dallisgrass (dallisgrass; [8]): 85 | Plant response rating, Nutsedge, Purple (purple nutsedge; [5]): 30 | Plant response rating, Nutsedge, Purple (purple nutsedge; [7]): 50 | Plant response rating, Nutsedge, Purple (purple nutsedge; [8]): 100

CCNC(=O)c1ccnc(NC(=O)c2cc(C(C)(C)C)nn2CC)c1 [Compound 152]
Plant response rating, Signalgrass (broadleaf signalgrass; [1]): 70 | Plant response rating, Signalgrass (broadleaf signalgrass; [9]): 60 | Plant response rating, Signalgrass (broadleaf signalgrass; [5]): 10 | Plant response rating, Signalgrass (broadleaf signalgrass; [6]): 40 | Plant response rating, Signalgrass (broadleaf signalgrass; [7]): 70 | Plant response rating, Signalgrass (broadleaf signalgrass; [8]): 80 | Plant response rating, Signalgrass (broadleaf signalgrass; [3]): 20 | Plant response rating, Spiderwort (tropical spiderwort; [1]): 80 | Plant response rating, Spiderwort (tropical spiderwort; [9]): 10 | Plant response rating, Spiderwort (tropical spiderwort; [5]): 10 | Plant response rating, Spiderwort (tropical spiderwort; [6]): 20 | Plant response rating, Spiderwort (tropical spiderwort; [7]): 75 | Plant response rating, Spiderwort (tropical spiderwort; [8]): 80 | Plant response rating, Itchgrass (itchgrass; [1]): 75 | Plant response rating, Itchgrass (itchgrass; [9]): 75 | Plant response rating, Itchgrass (itchgrass; [5]): 20 | Plant response rating, Itchgrass (itchgrass; [6]): 60 | Plant response rating, Itchgrass (itchgrass; [7]): 75 | Plant response rating, Itchgrass (itchgrass; [8]): 80 | Plant response rating, Itchgrass (itchgrass; [3]): 60 | Plant response rating, Dallisgrass (dallisgrass; [1]): 75 | Plant response rating, Dallisgrass (dallisgrass; [9]): 75 | Plant response rating, Dallisgrass (dallisgrass; [5]): 50 | Plant response rating, Dallisgrass (dallisgrass; [6]): 80 | Plant response rating, Dallisgrass (dallisgrass; [7]): 85 | Plant response rating, Dallisgrass (dallisgrass; [8]): 95 | Plant response rating, Dallisgrass (dallisgrass; [3]): 30 | Plant response rating, Nutsedge, Purple (purple nutsedge; [1]): 75 | Plant response rating, Nutsedge, Purple (purple nutsedge; [9]): 60 | Plant response rating, Nutsedge, Purple (purple nutsedge; [5]): 0 | Plant response rating, Nutsedge, Purple (purple nutsedge; [6]): 20 | Plant response rating, Nutsedge, Purple (purple nutsedge; [7]): 50 | Plant response rating, Nutsedge, Purple (purple nutsedge; [8]): 60 | Plant response rating, Nutsedge, Purple (purple nutsedge; [3]): 30

CCn1nc(C(C)(C)C)cc1C(=O)Nc1cccc(C(=O)NC2CC2)n1 [Compound 146]
Plant response rating, Chickweed (chickweed; [2]): 100 | Plant response rating, Chickweed (chickweed; [3]): 80 | Plant response rating, Chickweed (chickweed; [4]): 10

CCn1nc(C(C)(C)C)cc1C(=O)Nc1cccc(C#N)c1 [Compound 139]
Plant response rating, Chickweed (chickweed; [2]): 80 | Plant response rating, Chickweed (chickweed; [3]): 70 | Plant response rating, Chickweed (chickweed; [10]): 0 | Plant response rating, Chickweed (chickweed; [4]): 0

CCn1nc(C(C)(C)C)cc1C(=O)Nc1cccc(C(=O)OC)c1 [Compound 81]
Plant response rating, Chickweed (chickweed; [2]): 100 | Plant response rating, Chickweed (chickweed; [3]): 95 | Plant response rating, Chickweed (chickweed; [10]): 90 | Plant response rating, Chickweed (chickweed; [4]): 95

C=CCOC(=O)c1cccc(NC(=O)c2cc(C(C)(C)C)nn2CC)c1 [Compound 85]
Chickweed plant response rating (chickweed; Postemergence, scale 0 to 100): 100 | Plant response rating, Chickweed (chickweed; [2]): 100 | Plant response rating, Chickweed (chickweed; [3]): 100 | Plant response rating, Chickweed (chickweed; [4]): 100

Reference: patent publication US20060069132A1, “Azolecarboxamide herbicides” (priority 2004, published 2006)
